Results from US7473688B2, “Indolobenzazepine HCV NS5B inhibitors” (Bristol-Myers Squibb Company, priority 2005, dated 2009).
Where two headings read alike, the source gives them in different places.

Tests used:
HCV replicon = HCV replicon FRET assay; assay type: cell-based; details: Hepatitis C virus
In short: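 HCV replicon cells, with or without Renilla luciferase reporter, incubated with titrated compounds at 37 °C; Alamar blue read for cytotoxicity. NS3 protease activity read from lysates with 20 μM EDANS/DABCYL FRET peptide (340/490 nm, kinetic), or by Dual-Glo luciferase. Background from highest protease-inhibitor wells; EC50 = 50% signal reduction.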

HCV NS5B = molecular target: T1, HCV NS5B (Hepatitis C virus genotype 1b, UniProt Q9WMX2); assay: HCV NS5B RdRp enzyme assay (preincubation protocol); assay type: biochemical
T1 construct: The protein was expressed with an 18 amino acid C-terminal truncation to enhance the solubility; made in house; host or cells: E. coli BL21 (DE3), pET21a
T1 sequence (Q9WMX2 2420-2992): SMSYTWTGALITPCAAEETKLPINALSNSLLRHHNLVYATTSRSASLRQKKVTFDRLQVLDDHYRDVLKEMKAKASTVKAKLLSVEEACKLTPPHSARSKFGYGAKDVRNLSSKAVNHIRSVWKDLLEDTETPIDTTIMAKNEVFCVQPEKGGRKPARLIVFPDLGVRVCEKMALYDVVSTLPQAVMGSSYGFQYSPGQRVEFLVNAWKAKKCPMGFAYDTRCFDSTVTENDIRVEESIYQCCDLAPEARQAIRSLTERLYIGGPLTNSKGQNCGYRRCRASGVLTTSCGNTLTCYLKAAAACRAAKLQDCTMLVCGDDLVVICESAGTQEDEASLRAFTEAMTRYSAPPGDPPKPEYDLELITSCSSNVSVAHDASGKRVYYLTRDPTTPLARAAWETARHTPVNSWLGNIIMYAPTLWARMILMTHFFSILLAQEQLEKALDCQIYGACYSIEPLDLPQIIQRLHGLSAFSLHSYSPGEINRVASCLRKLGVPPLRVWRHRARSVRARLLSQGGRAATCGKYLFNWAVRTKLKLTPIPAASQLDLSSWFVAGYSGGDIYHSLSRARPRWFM
In short: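 C-terminally truncated (Δ18) genotype 1b NS5B from E. coli, 14 nM, added to compound, then polyA template (0.2 nM), 3H-UTP (0.29 μM) and oligo-dT12 primer precaptured on streptavidin SPA beads. 4 h at 30 °C, pH 7.5, 2% DMSO; SPA readout; IC50 from seven concentrations by logistic fit.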

[1] = Table 1, FRET assay, read-out: EC50*
[2] = Table 1b, FRET assay, read-out: EC50*
[3] = Table 1a, FRET assay, read-out: EC50*

O=C(O)c1ccc2c(C3CCCCC3)c3n(c2c1)CC(NC(=O)N1CCC(N2CCOCC2)CC1)Cc1ccccc1-3 (stereo not drawn)
EC50 (HCV replicon; [1]): 70 to 1000 nM
IC50 (HCV NS5B; Table 1, read-out: IC50*): 10 to 1000 nM

CCN(CC)C(=O)C1CCCN(C(=O)C2=Cc3ccccc3-c3c(C4CCCCC4)c4ccc(C(=O)NS(=O)(=O)N(C)C)cc4n3C2)C1 (stereo not drawn)
EC50 (HCV replicon; [1]): 70 to 1000 nM
IC50 (HCV NS5B; Table 1, read-out: IC50*): 10 to 1000 nM

COc1ccc2c(c1)C=C(C(=O)N1CCN(c3ncccn3)CC1)Cn1c-2c(C2CCCCC2)c2ccc(C(=O)NS(=O)(=O)N(C)C)cc21
EC50 (HCV replicon; [2]): 30 to 1000 nM
IC50 (HCV NS5B; Table 1b, read-out: IC50*): < 20 nM

O=C(O)c1ccc2c(C3CCCCC3)c3n(c2c1)CC(C(=O)N1CCN(C(=O)N2CCOCC2)CC1)=Cc1ccccc1-3
EC50 (HCV replicon; [1]): 70 to 1000 nM
IC50 (HCV NS5B; Table 1, read-out: IC50*): 10 to 1000 nM

COc1ccc2c(c1)CC(C(=O)N1CCN(CCOCCO)CC1)Cn1c-2c(C2CCCCC2)c2ccc(C(=O)NS(=O)(=O)N(C)C)cc21 (stereo not drawn)
EC50 (HCV replicon; [2]): 30 to 1000 nM
IC50 (HCV NS5B; Table 1b, read-out: IC50*): 20 to 1000 nM

COc1ccc2c(c1)CC(NC(=O)N(C)CC(=O)NC(C)C)Cn1c-2c(C2CCCCC2)c2ccc(C(=O)NS(=O)(=O)N(C)C)cc21 (stereo not drawn)
EC50 (HCV replicon; [2]): 30 to 1000 nM
IC50 (HCV NS5B; Table 1b, read-out: IC50*): 20 to 1000 nM

CC(=O)NC1CCN(C(=O)C2=Cc3ccccc3-c3c(C4CCCCC4)c4ccc(C(=O)O)cc4n3C2)CC1
EC50 (HCV replicon; [1]): 70 to 1000 nM
IC50 (HCV NS5B; Table 1, read-out: IC50*): 10 to 1000 nM

COc1ccc2c(c1)C=C(C(=O)N(C)C[C@@H]1CCCO1)Cn1c-2c(C2CCCCC2)c2ccc(C(=O)O)cc21
EC50 (HCV replicon; [3]): 1000 to 10000 nM
IC50 (HCV NS5B; Table 1a, read-out: IC50*): 10 to 1000 nM

COc1ccc2c(c1)C=C(C(=O)N1CCOCC1)Cn1c-2c(C2CCCCC2)c2ccc(C(=O)NS(=O)(=O)N3CCOCC3)cc21 [drawing 237]
EC50 (HCV replicon; [3]): 30 to 1000 nM
IC50 (HCV NS5B; Table 1a, read-out: IC50*): 10 to 1000 nM

COc1ccc2c(c1)CC(NC(=O)NCCN1CCOCC1)Cn1c-2c(C2CCCCC2)c2ccc(C(=O)NS(=O)(=O)N(C)C)cc21 (stereo not drawn)
EC50 (HCV replicon; [3]): 30 to 1000 nM
IC50 (HCV NS5B; Table 1a, read-out: IC50*): 10 to 1000 nM

COc1ccc2c(c1)C=C(C(=O)N1CCN(C(=O)C3CC3)CC1)Cn1c-2c(C2CCCCC2)c2ccc(C(=O)NS(=O)(=O)N(C)C)cc21
EC50 (HCV replicon; [3]): 30 to 1000 nM
IC50 (HCV NS5B; Table 1a, read-out: IC50*): 10 to 1000 nM

COc1ccc2c(c1)C=C(C(=O)N(C)[C@H](C(=O)N(C)C)C(C)C)Cn1c-2c(C2CCCCC2)c2ccc(C(=O)NS(=O)(=O)N(C)C)cc21
EC50 (HCV replicon; [2]): 30 to 1000 nM
IC50 (HCV NS5B; Table 1b, read-out: IC50*): < 20 nM

O=C(O)c1ccc2c(C3CCCCC3)c3n(c2c1)CC(C(=O)N1CCC(N2CCC(F)CC2)CC1)=Cc1ccccc1-3
EC50 (HCV replicon; [1]): 70 to 1000 nM
IC50 (HCV NS5B; Table 1, read-out: IC50*): 10 to 1000 nM

O=C(O)c1ccc2c(C3CCCCC3)c3n(c2c1)CC(C(=O)N1CC[C@H](F)C1)=Cc1ccccc1-3
EC50 (HCV replicon; [1]): 70 to 1000 nM
IC50 (HCV NS5B; Table 1, read-out: IC50*): 10 to 1000 nM

COc1ccc2c(c1)CC(NC(=O)N1C[C@@H](C)O[C@@H](C)C1)Cn1c-2c(C2CCCCC2)c2ccc(C(=O)NS(=O)(=O)N(C)C)cc21 (stereo partly drawn)
EC50 (HCV replicon; [3]): 30 to 1000 nM
IC50 (HCV NS5B; Table 1a, read-out: IC50*): 10 to 1000 nM

C[C@@H]1CN(C(=O)C2=Cc3ccccc3-c3c(C4CCCCC4)c4ccc(C(=O)NCCN(C)C)cc4n3C2)C[C@H](C)O1
EC50 (HCV replicon; [1]): 1000 to 10000 nM
IC50 (HCV NS5B; Table 1, read-out: IC50*): 10 to 1000 nM

COC(=O)c1ccc2c(C3CCCCC3)c3n(c2c1)CC(C(=O)N1CCC(N2CCC(F)CC2)CC1)=Cc1ccccc1-3
EC50 (HCV replicon; [1]): > 370 nM
IC50 (HCV NS5B; Table 1, read-out: IC50*): > 1000 nM

COc1ccc2c(c1)C=C(C(=O)N1CC(CO)C1)Cn1c-2c(C2CCCCC2)c2ccc(C(=O)NS(=O)(=O)N(C)C)cc21
EC50 (HCV replicon; [2]): 30 to 1000 nM
IC50 (HCV NS5B; Table 1b, read-out: IC50*): 20 to 1000 nM

COC(=O)c1ccc2c(C3CCCCC3)c3n(c2c1)CC(C(=O)N1CCCC(C(N)=O)C1)=Cc1ccccc1-3 (stereo not drawn)
EC50 (HCV replicon; [1]): 1000 to 10000 nM
IC50 (HCV NS5B; Table 1, read-out: IC50*): > 1000 nM

COc1ccc2c(c1)C=C(C(=O)N1CCN(CC(F)(F)F)CC1)Cn1c-2c(C2CCCCC2)c2ccc(C(=O)NS(=O)(=O)N(C)C)cc21 [drawing 390]
EC50 (HCV replicon; [3]): 30 to 1000 nM
IC50 (HCV NS5B; Table 1a, read-out: IC50*): 10 to 1000 nM

COC(=O)c1ccc2c(C3CCCCC3)c3n(c2c1)CC(NC(=O)N1C[C@@H](C)O[C@@H](C)C1)Cc1ccccc1-3 (stereo partly drawn)
EC50 (HCV replicon; [1]): > 120 nM
IC50 (HCV NS5B; Table 1, read-out: IC50*): > 1000 nM

CN(C)S(=O)(=O)NC(=O)c1ccc2c(C3CCCCC3)c3n(c2c1)CC(C(=O)N1CCC(N2CC[C@H](F)C2)CC1)=Cc1ccccc1-3
EC50 (HCV replicon; [1]): 70 to 1000 nM
IC50 (HCV NS5B; Table 1, read-out: IC50*): 10 to 1000 nM

COc1cccc2c1C=C(C(=O)N1C[C@@H](C)N[C@@H](C)C1)Cn1c-2c(C2CCCCC2)c2ccc(C(=O)O)cc21
EC50 (HCV replicon; [2]): 30 to 1000 nM
IC50 (HCV NS5B; Table 1b, read-out: IC50*): 20 to 1000 nM

CN(C)S(=O)(=O)NC(=O)c1ccc2c(C3CCCCC3)c3n(c2c1)CC(C(=O)N1CCC2(CC1)OCCO2)=Cc1ccccc1-3
EC50 (HCV replicon): 70 to 1000 nM
IC50 (HCV NS5B; IC50*, Table 1): 10 to 1000 nM

Cc1ccc(S(=O)(=O)N2CCN(C(=O)C3=Cc4ccccc4-c4c(C5CCCCC5)c5ccc(C(=O)NS(=O)(=O)N(C)C)cc5n4C3)CC2)cc1
EC50 (HCV replicon; [1]): 70 to 1000 nM
IC50 (HCV NS5B; Table 1, read-out: IC50*): 10 to 1000 nM

COC(=O)CCC(=O)CNC(=O)C1=Cc2cc(OC)ccc2-c2c(C3CCCCC3)c3ccc(C(=O)OC)cc3n2C1
EC50 (HCV replicon; [3]): 30 to 1000 nM
IC50 (HCV NS5B; Table 1a, read-out: IC50*): 10 to 1000 nM

O=C(NS(=O)(=O)N1CCN(CC(F)(F)F)CC1)c1ccc2c(C3CCCCC3)c3n(c2c1)CC(C(=O)N1CCOCC1)=Cc1ccccc1-3 [drawing 391]
EC50 (HCV replicon; [3]): 30 to 1000 nM
IC50 (HCV NS5B; Table 1a, read-out: IC50*): 10 to 1000 nM
